# Measurements published in patent US20260250290A1 (BRISTOL-MYERS SQUIBB COMPANY, priority 2023, published 2026).
# Counter-ions that a name gives are not always drawn.
# Target: T1, full length SGK1 (Homo sapiens, UniProt O00141)
# T1 construct: 125 μM full length SGK1 (Life Technologies Part #PR7358A); purchased Life Technologies PR7358A
# T1 sequence (O00141 1-431): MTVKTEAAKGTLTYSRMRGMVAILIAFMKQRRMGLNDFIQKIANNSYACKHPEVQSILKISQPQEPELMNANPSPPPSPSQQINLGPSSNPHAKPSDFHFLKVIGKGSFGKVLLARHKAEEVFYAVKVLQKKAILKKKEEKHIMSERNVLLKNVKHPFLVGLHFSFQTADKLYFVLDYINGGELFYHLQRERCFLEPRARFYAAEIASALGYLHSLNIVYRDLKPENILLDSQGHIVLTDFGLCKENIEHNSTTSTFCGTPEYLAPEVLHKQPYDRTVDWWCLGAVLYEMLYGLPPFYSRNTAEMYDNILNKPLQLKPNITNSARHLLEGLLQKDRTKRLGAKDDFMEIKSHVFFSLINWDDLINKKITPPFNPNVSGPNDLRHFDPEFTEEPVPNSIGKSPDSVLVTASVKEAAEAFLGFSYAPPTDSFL
# Assay: SGK1 inhibition Assay A (Caliper LabChip electrophoretic separation of fluorescent peptide substrate and phosphorylated product)
# Assay type: biochemical
# Conditions: Assay A; 20 μM ATP, 40 min incubation; read-out: SGK1 IC50
row,Structure (SMILES),IC50
1,"CN1CCN(c2cccc(C(=O)N[C@@H]3CCCN(c4cc(-c5cncnc5)n5ncnc(N)c45)C3)n2)CC1 [Example 787, (R)-N-(1-(4-amino-7-(pyrimidin-5-yl)pyrrolo[2,1-f][1,2,4]triazin-5-yl)piperidin-3-yl)-6-(4-methylpiperazin-1-yl)picolinamide]",77 nM
2,Nc1ncnn2c(-c3cncnc3)cc(N3CCC[C@@H](NC(=O)c4sc(Cl)cc4OC4CCN(C5COC5)CC4)C3)c12 [Example 584],26 nM
3,"COC(=O)NCCOc1cc(C(F)F)sc1C(=O)N[C@@H]1CCCN(c2cc(-c3cnc(C#N)c(C)c3)n3ncnc(N)c23)C1 [Example 431, methyl (R)-(2-((2-((1-(4-amino-7-(6-cyano-5-methylpyridin-3-yl)pyrrolo[2,1-f] [1,2,4]triazin-5-yl)piperidin-3-yl)carbamoyl)-5-(difluoromethyl)thiophen-3-yl)oxy)ethyl)carbamate]",14 nM
4,"CCOC(=O)[C@H]1CCCN(c2cc(-c3ccc(S(C)(=O)=O)cc3)n3ncnc(N)c23)C1 [Example 1, ethyl (S)-1-(4-amino-7-(4-(methylsulfonyl)phenyl)pyrrolo[2,1-f][1,2,4]triazin-5-yl)piperidine-3-carboxylate]",2990 nM
5,"NC(=O)c1ccc(-c2cc(N3CCC[C@@H](NC(=O)c4sc(Cl)cc4OCC4CCNCC4)C3)c3c(N)ncnn23)cn1 [Example 644, (R)-5-(4-amino-5-(3-(5-chloro-3-(piperidin-4-ylmethoxy)thiophene-2-carboxamido)piperidin-1-y1)pyrrolo[2,1-f][1,2,4]triazin-7-y1)picolinamide]",0.4 nM
6,"COc1cccc(C(=O)N[C@@H]2CCCN(c3cc(-c4ccc(S(C)(=O)=O)cc4)n4ncnc(N)c34)C2)c1 [Example 22, (R)-N-(1-(4-amino-7-(4-(methylsulfonyl)phenyl)pyrrolo[2,1-f][1,2,4]triazin-5-yl)piperidin-3-yl)-3-methoxybenzamide]",12 nM
7,"COC(=O)N1CC=C(c2cc(N3CCC[C@@H](NC(=O)c4sc5ccccc5c4OC4CNC4)C3)c3c(N)ncnn23)C1 [Example 674, methyl (R)-3-(4-amino-5-(3-(3-(azetidin-3-yloxy)benzo[b]thiophene-2-carboxamido)piperidin-1-yl)pyrrolo[2,1-f][1,2,4]triazin-7-yl)-2,5-dihydro-1H-pyrrole-1-carboxylate]",85 nM
8,"CN(C)CCOc1cc(C2CC2)sc1C(=O)N[C@@H]1CCCN(c2cc(-c3cncnc3)n3ncnc(N)c23)C1 [Example 374, (R)-N-(1-(4-amino-7-(pyrimidin-5-yl)pyrrolo[2,1-f][1,2,4]triazin-5-yl)piperidin-3-yl)-5-cyclopropyl-3-(2-(dimethylamino)ethoxy) thiophene-2-carboxamide]",111 nM
9,"CC(=O)N1CC=C(c2cc(N3CCC[C@@H](NC(=O)c4cccc(N5CCN(CC(F)F)CC5)n4)C3)c3c(N)ncnn23)C1 [Example 750, (R)-N-(1-(7-(1-acetyl-2,5-dihydro-1H-pyrrol-3-yl)-4-aminopyrrolo[2,1-f][1,2,4]triazin-5-yl)piperidin-3-yl)-6-(4-(2,2-difluoroethyl)piperazin-1-yl)picolinamide]",41 nM
10,"CC(=O)N1CC=C(c2cc(N3CCC[C@@H](NC(=O)c4sc(Cl)cc4OC4CN(C(C)C)C4)C3)c3c(N)ncnn23)C1 [Example 577, (R)-N-(1-(7-(1-acetyl-2,5-dihydro-1H-pyrrol-3-yl)-4-aminopyrrolo[2,1-f][1,2,4]triazin-5-yl)piperidin-3-yl)-5-chloro-3-((1-isopropylazetidin-3-yl)oxy)thiophene-2-carboxamide]",6 nM
11,"Nc1ncnn2c(-c3ccc4cnoc4c3)cc(N3CCC[C@@H](NC(=O)c4ccc(Cl)s4)C3)c12 [Example 871, (R)—N-(1-(4-amino-7-(benzo[d]isoxazol-6-yl)pyrrolo[2,1-f][1,2,4]triazin-5-yl)piperidin-3-yl)-5-chlorothiophene-2-carboxamide]",6 nM
12,"CN1[C@@H]2CC[C@H]1C[C@H](Oc1cc(Cl)sc1C(=O)N[C@@H]1CCCN(c3cc(-c4cncnc4)n4ncnc(N)c34)C1)C2 [Example 614, N—((R)-1-(4-amino-7-(pyrimidin-5-yl)pyrrolo[2,1-f][1,2,4]triazin-5-yl)piperidin-3-yl)-5-chloro-3-((8-methyl-8-azabicyclo[3.2.1]octan-3-yl)oxy)thiophene-2-carboxamide]",3 nM
13,"CC(=O)N1CC=C(c2cc(N3CCC[C@@H](NC(=O)c4cccc(OC5CCN(C)CC5)n4)C3)c3c(N)ncnn23)C1 [Example 709, (R)-N-(1-(7-(1-acetyl-2,5-dihydro-1H-pyrrol-3-yl)-4-aminopyrrolo[2,1-f][1,2,4]triazin-5-yl)piperidin-3-yl)-6-((1-methylpiperidin-4-yl)oxy)picolinamide]",16 nM
14,"CN(C)CCOc1cc(C(F)F)sc1C(=O)N[C@@H]1CCCN(c2cc(-c3ccc(C(N)=O)nc3)n3ncnc(N)c23)C1 [Example 306, (R)-5-(4-amino-5-(3-(5-(difluoromethyl)-3-(2-(dimethylamino)ethoxy)thiophene-2-carboxamido)piperidin-1-yl)pyrrolo[2,1-f] [1,2,4]triazin-7-yl)picolinamide]",11 nM
15,"CS(=O)(=O)c1ccc(-c2cc(N3CCC[C@@H](NS(=O)(=O)c4ccccc4)C3)c3c(N)ncnn23)cc1 [Example 274, (R)—N-(1-(4-amino-7-(4-(methylsulfonyl)phenyl)pyrrolo[2,1-f][1,2,4]triazin-5-yl)piperidin-3-yl)benzenesulfonamide]",916 nM
16,"COc1cc(C(=O)N[C@@H]2CCCN(c3cc(-c4ccc(S(C)(=O)=O)cc4)n4ncnc(N)c34)C2)ccn1 [Example 46, (R)-N-(1-(4-amino-7-(4-(methylsulfonyl)phenyl)pyrrolo[2,1-f][1,2,4]triazin-5-yl)piperidin-3-yl)-2-methoxyisonicotinamide, TFA]",10 nM
17,"Nc1ncnn2c(C3=CCN(C(=O)[C@@H]4CCCNC4)C3)cc(N3CCC[C@@H](NC(=O)c4ccc(Cl)s4)C3)c12 [Example 901, N-((R)-1-(4-amino-7-(1-((R)-piperidine-3-carbonyl)-2,5-dihydro-1H-pyrrol-3-y1)pyrrolo[2,1-f][1,2,4]triazin-5-y1)piperidin-3-y1)-5-chlorothiophene-2-carboxamide]",29 nM

# Continued by falling IC50, values first:
row,IC50,Structure (SMILES)
1,237 nM,"CN1CCN(c2cccc(C(=O)N[C@@H]3CCCN(c4cc(-c5ccn(C)c(=O)c5)n5ncnc(N)c45)C3)n2)CC1 [Example 802, (R)-N-(1-(4-amino-7-(1-methyl-2-oxo-1,2-dihydropyridin-4-yl)pyrrolo[2,1-f][1,2,4]triazin-5-yl)piperidin-3-yl)-6-(4-methylpiperazin-1-yl)picolinamide]"
2,143 nM,"CS(=O)(=O)c1ccc(-c2cc(N3CC[C@@H](NC(=O)c4ccc(Cl)s4)C3)c3c(N)ncnn23)cc1 [Example 137, (R)—N-(1-(4-amino-7-(4-(methylsulfonyl)phenyl)pyrrolo[2,1-f][1,2,4]triazin-5-yl)pyrrolidin-3-yl)-5-chlorothiophene-2-carboxamide, TFA]"
3,90 nM,"Cc1ccc(C(=O)NC2CCCN(c3cc(-c4ccc(S(C)(=O)=O)cc4)n4ncnc(N)c34)C2)cc1 (centres unmarked) [Example 7, N-(1-(4-amino-7-(4-(methylsulfonyl)phenyl)pyrrolo[2,1-f][1,2,4]triazin-5-yl)piperidin-3-yl)-4-methylbenzamide, TFA]"
4,35 nM,"CC(=O)N1CC=C(c2cc(N3CCC[C@@H](NC(=O)c4sc(C5CC5)cc4OC4CCN(C(C)C)CC4)C3)c3c(N)ncnn23)C1 [Example 377, (R)-N-(1-(7-(1-acetyl-2,5-dihydro-1H-pyrrol-3-yl)-4-aminopyrrolo[2,1-f][1,2,4]triazin-5-yl)piperidin-3-yl)-5-cyclopropyl-3-((1-isopropylpiperidin-4-yl)oxy)thiophene-2-carboxamide]"
5,33 nM,Cc1cnc(F)cc1-c1cc(N2CCC[C@@H](NC(=O)c3ccc(Cl)s3)C2)c2c(N)ncnn12 [Example 233]
6,11 nM,"CC(=O)N1CCC(Oc2cc(C(F)F)sc2C(=O)N[C@@H]2CCCN(c3cc(-c4ccc(=O)n(CC(F)F)c4)n4ncnc(N)c34)C2)CC1 [Example 414, (R)-3-((1-acetylpiperidin-4-yl)oxy)-N-(1-(4-amino-7-(1-(2,2-difluoroethyl)-6-oxo-1,6-dihydropyridin-3-yl)pyrrolo[2,1-f][1,2,4]triazin-5-yl)piperidin-3-yl)-5-(difluoromethyl)thiophene-2-carboxamide]"
7,4 nM,"CS(=O)(=O)N1CC=C(c2cc(N3CCC[C@@H](NC(=O)c4ccns4)C3)c3c(N)ncnn23)C1 [Example 112, (R)—N-(1-(4-amino-7-(1-(methylsulfonyl)-2,5-dihydro-1H-pyrrol-3-yl)pyrrolo[2,1-f][1,2,4]triazin-5-yl)piperidin-3-yl)isothiazole-5-carboxamide, TFA]"
8,2 nM,"CN(C)CCOc1cc(Cl)sc1C(=O)N[C@@H]1CCCN(c2cc(-c3ccc(C(N)=O)c(F)c3)n3ncnc(N)c23)C1 [Example 164, (R)-N-(1-(4-amino-7-(4-carbamoyl-3-fluorophenyl)pyrrolo [2,1-f][1,2,4]triazin-5-yl)piperidin-3-yl)-5-chloro-3-(2-(dimethylamino)ethoxy)thiophene-2-carboxamide, 2 TFA]"
9,1 nM,"CC(=O)N1CC=C(c2cc(N3CCC[C@@H](NC(=O)c4cccc(N5CCNC(C)(C)C5)n4)C3)c3c(N)ncnn23)C1 [Example 773, (R)-N-(1-(7-(1-acetyl-2,5-dihydro-1H-pyrrol-3-yl)-4-aminopyrrolo[2,1-f][1,2,4]triazin-5-yl)piperidin-3-yl)-6-(3,3-dimethylpiperazin-1-yl)picolinamide]"
